Assay results reported in PubChem BioAssay (NCI).
Several values for one entry are separate records, joined by “and”; a condition that tells them apart may be missing. Equal entries are not always repeated.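 Assay format: 96-well plates, 48-hour exposure. Here, GI50 denotes the concentration required for 50% inhibition of growth. TGI: concentration producing complete growth inhibition.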

What was measured:
Assay in all cases: inhibition of tumour cell growth, NCI panel, 48 h
TK-10 renal = test system: TK-10 renal
SK-MEL-2 melanoma = test system: SK-MEL-2 melanoma
UACC-257 melanoma = test system: UACC-257 melanoma
BT-549 breast = test system: BT-549 breast
A498 renal = test system: A498 renal
HT29 colon = test system: HT29 colon
SF-539 CNS = test system: SF-539 CNS
CAKI-1 renal = test system: CAKI-1 renal
SR leukemia = test system: SR leukemia
A549 NSCLC = test system: A549 NSCLC

Structure (SMILES)	GI50 (TK-10 renal) [µM]	TGI (TK-10 renal) [µM]	GI50 (SK-MEL-2 melanoma) [µM]	TGI (SK-MEL-2 melanoma) [µM]	GI50 (UACC-257 melanoma) [µM]	TGI (UACC-257 melanoma) [µM]	GI50 (BT-549 breast) [µM]	TGI (BT-549 breast) [µM]	GI50 (A498 renal) [µM]	TGI (A498 renal)	GI50 (HT29 colon) [µM]	TGI (HT29 colon) [µM]	GI50 (SF-539 CNS) [µM]	TGI (SF-539 CNS) [µM]	GI50 (CAKI-1 renal) [µM]	TGI (CAKI-1 renal) [µM]	TGI (SR leukemia) [µM]	GI50 (A549 NSCLC) [µM]	TGI (A549 NSCLC) [µM]	GI50 (SR leukemia) [µM]
Cc1cc(I)cc(CNCCN(C)C)c1O	> 91.6	> 100	> 77.2	> 100	> 62.5	> 100	37.5	> 100	61.5	> 100 µM	35.2	> 100	> 89.9	> 100	50.1	> 100	0.383	99.7	> 100	
Nc1ccc(/C=C/c2ccc3ncccc3c2)cc1	86.5	> 100	> 100	> 100	> 100	> 100	5.29	> 100	> 100	> 100 µM	> 100	> 100	> 100	> 100		> 100	> 100	> 100	> 100	> 100
Sc1cccc2cccnc12	4.16	15.6	2.58	15.3	1.37	12.3	1.46	12.4	2.45	8.8 µM	0.918	11.2	0.776	12.9	1.67	14.5	> 56.1	0.497	11.5	0.28
O=[N+]([O-])c1ccc(C2=NCCO2)cc1	> 100	> 100	> 100	> 100	> 100	> 100	> 100	> 100	> 100	> 100 µM	> 100	> 100	> 100	> 100	> 100	> 100	> 100	> 100	> 100	> 100
Cn1cc(C2=C(c3ccsc3)C(=O)NC2=O)c2ccccc21	> 25	> 25	> 25	> 25	> 25	> 25	> 25	> 25	12.1	> 25 µM	> 25	> 25	24.2	> 25	> 25	> 25	> 25	> 25	> 25	> 25
O=C1NN2CC(c3ccccc3)=NN=C2c2ccccc21	31.5	98.3	52.8	> 100	59.1	> 100	24.5	57	87.5	> 100 µM	24.7	49	25.8	56.8	33.5	> 100	42	28.6	70.8	0.507
C=C(CO)C(=O)OC1CC(=C)C2CC(O)C(C)C2C2OC(=O)C(=C)C12 (stereo not drawn)		33.2		32		32.7		32.3		> 100 µM		53.9		37.8		36.6	51.2		> 100	
ClC1=C(Cl)C(Cl)(C2(Cl)C(Cl)=C(Cl)C(Cl)=C2Cl)C(Cl)=C1Cl	0.201	0.462	1.29	3.14	0.543	1.84	1.68	3.67	1.71	3.19 µM	0.242	0.617	1.74	3.66	0.265	0.832	1.52	1.87	4.16	0.272
CNC(=O)Oc1cc(C(C)C)ccc1Sc1ccc(C(C)C)cc1OC(=O)NC	14	30.3	4.21	17.3	5.81	20.3	3.44	12	12	25 µM	12.6	27.4	4.07	17.1	3.34	17.1	10	5.22	18.4	2.2
CN(C)CCNC(=O)c1cc2c3cc(Cl)ccc3[nH]c2c2ncccc12	3.81	13.4	4.2	20.1	3.92	14.9	2.26	7.98	3.52	13.1 µM	2.33	10.3	1.57	3.14	3.52	19.6	4.1	1.93	4.7	1.68
O=C(O)c1ccc(N(/C=C/C(=O)C(F)(F)F)Cc2ccc(Cl)cc2)cc1	27	60.8	19.1	53.3	30.7	86.8	38.7	67	22	62.9 µM	37	> 100	19	42.1	34.6	> 100	71.5	34.9	> 100	27.3
CC(C)=CCc1cc2c(cc1O)C1=C(C(=O)C3=C(NCCS3(=O)=O)C1=O)C(C=C(C)C)O2 (stereo not drawn)	> 16.7	> 16.7	4.34	15	3.48	9.66	14.1	> 16.7	> 16.7	> 16.7 µM	7.35	> 16.7	4.22	12.9			> 16.7	> 16.7	> 16.7	5.46
CCN1CCN(CCC(=O)Nc2cccc(-n3cc(-c4ccncc4)c(-c4ccc(Cl)c(OC)c4)n3)c2)CC1	1.75	5	1.11	2.55	0.864	2.31	1.38	4.43	0.676	2.74 µM	0.381	1.22	0.362	1.47			2.37	0.593	2.29	0.433
CC(=O)/C(=C\c1ccc(Cl)cc1)c1ccccc1	2.76	> 66.6	0.141	> 100			0.107	0.946	0.0309	0.378 µM	0.14	> 61.7			0.549	> 100	> 49.7	0.255	> 100	0.0415
COc1ccc(-c2csc3c2-n2cccc2C3=O)cc1		> 100	0.0111	> 79.9			0.0492		0.124	1.17 µM and 3.15 µM	0.00571			2.39	0.0528	> 100		0.0664	> 100	0.00314
O=C1C=C(Nc2ccccc2)c2ccccc2C1=O	2.86	7.75			1.79	3.25	1.73	3.16	1.96	5.26 µM	2.35	5.17	1.81	3.47	3.11	13.7	12.4	1.84	4.06	3.22
C[C@@H]1CN2[C@H]3[C@@H]1CC[C@]31CCC(=O)O[C@]1(C)[C@H]1CC[C@H]3CCC=C3[C@@H]12	> 30	> 30	> 30	> 30			> 30	> 30	> 30	> 30 µM	> 30	> 30	> 30	> 30	> 30	> 30	> 30	> 30	> 30	> 30
CC1=C(CCCOC(=O)[C@H](N)CC(C)C)C2=C(C)C3(CC3)[C@@](C)(O)C(=O)C2=C1	2.88	7.92	1.91	3.89	2.53	6.06	1.31	4.48	1.68	3.66 µM	2.22	6.02	1.61	4.25			> 100	3.06	30.9	12.8
CCOC(=O)c1noc2c1CCc1c-2cn(Cc2ccc(OC)cc2)c1-c1cc(OC)c(OC)c(OC)c1	> 100	> 100	4.29	> 100	85.8	> 100	1.47	35.1	2.77	42 µM	0.846	> 100	1.84	6.56			> 100	3.8	> 100	2.09
O=S(=O)(NCCCNc1cc(-c2cn(-c3ccccc3)nc2-c2cccc(O)c2)ccn1)c1ccc(C(F)(F)F)cc1	3.32	9.84	1.88	3.63			1.39	2.8	1.1	2.64 µM	1.23	3.18	1.83	3.77	2.08	7.81	5.83	2.14	7.45	1.78
